The record followed here is patent publication US20140221480A1, “METHODS OF MANAGING BRAIN INFLAMMATION” (EMORY UNIVERSITY, priority 2013, published 2014).

Entries after “also recorded” stand apart in the source; their conditions may differ. Like-named read-outs stand apart in the source and are kept apart here.

What all share (type): in vivo, mice (C57BL/6J)
Series [1] in a line: Concentration of TAK-242 in plasma and brain tissue after i.p. injection (LC-MS/MS). The settings on record: for concentration at 3 h / concentration at 8 h / concentration at 24 h: male, C57BL/6J, mouse, ip, 3 mg/kg body weight; for concentration at 3 h: 3 hrs after i.p. injection; for concentration at 8 h: 8 hrs after i.p. injection; for concentration at 24 h: 24 hrs after i.p. injection. An excerpt: (§1) Animals—Fifty male mice (C57BL/6J, body weight 25˜30 g) were obtained from Jackson Laboratory and maintained in the Division of Laboratory Animal Resources at Emory University”. The experiments outlined in this manuscript conform to the Guide for the Care and Use of Laboratory Animals published by the National Institutes of Health. The animal care and experimental protocols were approved by the Emory University Committee on Animal Care. Animals were randomly assigned to four groups: sham control (S, n=4, for molecular analysis), focal cerebral ischemia/reperfusion (I/R, n=16; 5 for molecular analysis), Sham+TAK-242 (S-T, n=4, for molecular analysis), and I/R+TAK-242 (I/R-T, n=16; 5 for molecular analysis). Ten mice were used for the measurement of TAK-242 concentration in plasma and brain tissue.
(§2) Focal cerebral ischemia/reperfusion—Focal cerebral FR was induced by occlusion of the middle cerebral artery (MCAO) on the left side. Mice were subjected to anesthesia by 5.0% isoflurane and maintained by inhalation of 1.5% to 2% isoflurane driven by 100% oxygen flow. Mice were ventilated (110 breaths/min with volume 0.5 ml) and body temperature was regulated at 37.0° C. Heart rate and PO2 were monitored during surgery. Following the skin incision, the left common carotid artery (CCA), the external carotid artery (ECA), and the internal carotid artery (ICA) were carefully exposed. Microvascular aneurysm clips were applied to the left CCA and the ICA. A coated 6-0 filament (6023PK, Doccol Corp. CA, USA) was introduced into an arteriotomy hole, fed distally into the ICA and advanced 11 mm from the carotid bifurcation. The ICA clamp was removed and focal cerebral ischemia started. After ischemia for 60 min, the filament and the CCA clamp were gently removed (reperfusion starts). The collar suture at the base of the ECA stump was tightened. The skin was closed, anesthesia discontinued, and the animal allowed to recover in a pre-warmed cage. Control mice underwent a neck dissection and coagulation of the external carotid artery, but no occlusion of the MCA. Ischemia and reperfusion were confirmed by rCBF.
(§3) TAK-242 treatment—TAK-242 was dissolved in DMSO and then diluted in sterile endotoxin-free water and injected intraperitoneally (i.p., 3 mg/kg body weight) 1 hr after MCAO or sham surgical operation.
Measurement of TAK242 concentration in plasma and brain tissue—Three, 8 or 24 hours after the injection of TAK242, the mice were anesthetized with 5.0% isoflurane driven by 100% oxygen flow. Blood (0.95 ml) was drawn from the left ventricle and immediately mixed with 0.05 mL sodium citrate (CCS). The samples were incubated at room temperature for 30 min and centrifuged at 8000 rpm. The plasma was collected and stored at −80° C. for future use Immediately after the blood was drawn, the mice were perfused with ice-cold normal saline via the ascending aorta until the perfusion buffer was clear from the right atrium. The brains were removed and weighed. Brain tissues were homogenized with buffer, and centrifuged at 14000 rpm for 10 min. Supernatants were collected and stored at −80° C. The concentrations of TAK-242 were detected by Intertek (USA) using Liquid Chromatography with Tandem Mass Spectrometry Detection (LC-MS/MS). Briefly, TAK-242 and internal standard (Bromfenac) were extracted from 50 μL of mouse plasma or brain homogenate by liquid-liquid extraction using methyltertiary-butyl ether (MTBE). After evaporation to dryness and reconstitution, the extracts were analyzed by LC-MS/MS. Run times were approximately 5 min. The Lower Limit of Quantitation (LLOQ) for TAK-242 is 0.5 ng/ml for plasma and 2 ng/g for brain homogenate.

The subject of series [2] is mice subjected to acute cerebral I/R. The series can be described thus: Assessment of cerebral infarct size by TTC staining after focal cerebral ischemia/reperfusion (MCAO). The settings on record: 24 hrs after cerebral I/R, 3 mg/kg i.p. 1 hr after ischemia. An excerpt: Animals—Fifty male mice (C57BL/6J, body weight 25˜30 g) were obtained from Jackson Laboratory and maintained in the Division of Laboratory Animal Resources at Emory University”. The experiments outlined in this manuscript conform to the Guide for the Care and Use of Laboratory Animals published by the National Institutes of Health. The animal care and experimental protocols were approved by the Emory University Committee on Animal Care. […]
Focal cerebral ischemia/reperfusion—Focal cerebral FR was induced by occlusion of the middle cerebral artery (MCAO) on the left side. […] Heart rate and PO2 were monitored during surgery. […]
Assessment of cerebral infarct size—Twenty-four hours after FR, mice were sacrificed and perfused with ice-cold phosphate buffered saline (PBS) via the ascending aorta. […] The infarct areas were traced and quantified with ImageJ analysis system. […] The area of infarction and the area of both hemispheres were calculated for each brain slice. An edema index was calculated by dividing the total volume of the left hemisphere by the total volume of the right hemisphere. The actual infarct volume adjusted for edema was calculated by dividing the infarct volume by the edema index. Infarct volumes are expressed as percentage of the total brain volume±S.E.M.

For series [3] the test system is unchanged. The series is described as follows: Evaluation of neurological score after focal cerebral ischemia/reperfusion (MCAO). Particulars: 24 hrs after cerebral I/R; 3 mg/kg i.p. 1 hr after ischemia; scale 0 to 15, 15 perfect; control group 4.38.
Excerpt: as §1
Focal cerebral ischemia/reperfusion—Focal cerebral FR was induced by occlusion of the middle cerebral artery (MCAO) on the left side. Mice were subjected to anesthesia by 5.0% isoflurane and maintained by inhalation of 1.5% to 2% isoflurane driven by 100% oxygen flow. Mice were ventilated (110 breaths/min with volume 0.5 ml) and body temperature was regulated at 37.0° C. Heart rate and PO2 were monitored during surgery. […]
Evaluation of neurological score—Mice were scored by a blinded investigator. […]

Series [4] deals with inflammatory cytokines in ischemic brain. The series can be described thus: Antibody array of inflammatory cytokines in ischemic brain tissue. Particulars: 6 hrs after cerebral I/R; 3 mg/kg i.p.; vs untreated controls, p<0.05.
Excerpt: as §1, §2, §3
Antibody array—Proteins were prepared from ischemic cerebral hemispheres. Forty inflammatory cytokines were analyzed by antibody arrays (RayBio® Cytokine Antibody Arrays—Mouse Inflammation Antibody Array G Series I). Briefly, the glass chips were air-dried for 60 min and assembled into an incubation chamber and incubation frame. […] The signal data was collected and analyzed by software from RayBiotech, Inc. (Atlanta, Ga., USA). […]

Where [5] appears, read: hemisphere contralateral to ischemia, brain tissue, read-out: concentration of TAK-242 in hemisphere contralateral to ischemia.
Setting [6] is: ischemic (ipsilateral) hemisphere, brain tissue, read-out: concentration of TAK-242 in ischemic (ipsilateral) hemisphere.
Where [7] appears, read: plasma, mice with tMCAO, read-out: concentration of TAK-242 in plasma.

Regarding `CCOC(=O)C1=CCCC[C@H]1S(=O)(=O)Nc1ccc(F)cc1Cl` [TAK-242, ethyl (6R)-6-[N-(2-chloro-4-fluorophenyl)sulfamoyl]cyclohex-1-ene-1-carboxylate], the “ability to pass through the blood brain barrier (BBB)” value in series [1] (3 mg/kg i.p., mice) is listed as “passes the blood-brain barrier; also recorded: can pass through the BBB”. Further, the “concentration in ischemic hemisphere compared with contralateral hemisphere” value in series [1] (3 mg/kg i.p., p<0.05) is “significantly higher”. Besides, in series [1] (setting [5]), the concentration at 3 h is 14.2 ng/mL, the concentration at 8 h came out at 15.1 ng/mL and the concentration at 24 h is 17.5 ng/mL. Further, in series [1] (setting [6]), the concentration at 3 h is 26.1 ng/mL, the concentration at 8 h turned out to be 26.4 ng/mL and the concentration at 24 h came out at 25 ng/mL. In series [1] (setting [7]), the concentration at 3 h turned out to be 52 ng/mL, the concentration at 8 h stood at 54.1 ng/mL and the concentration at 24 h was determined as 22.6 ng/mL. In addition, the brain infarct size in series [2] (control group 21.3%) was 12.5%. Besides, the “reduction of brain infarct size compared to control mice” value in series [2] (p<0.05) is listed as 41%. This compound returned a neurological score in series [3] of 6.73. In addition, in series [4], the “level of MCP-1 in brain tissue” value is “significantly reduced”, the “level of MIP-1γ in brain tissue” value was “significantly reduced”, the “level of TIMP-1 in brain tissue” value is “significantly reduced” and the “level of sTNF RII in brain tissue” value is recorded as “significantly reduced”.
